Source: paper PMC4128571 (Drug testing and analysis, 2014)

Experiments:
Type in all cases: biochemical
[1] = target: dopamine transporters (DAT) (Rattus norvegicus, UniProt P23977); settings: for DAT/SERT ratio: (EC50 at DAT)^-1/(EC50 at SERT)^-1, higher value indicates greater DAT selectivity; for Efficacy to evoke release at DAT (of maximal release): rat brain synaptosomes
5-HT transporters (SERT) = 5-HT transporters (SERT) (Rattus norvegicus, UniProt P31652); settings: for Efficacy to evoke release at SERT (of maximal release): rat brain synaptosomes
[2] = target: norepinephrine transporters (NET) (Rattus norvegicus, UniProt Q63380); settings: rat brain synaptosomes
Chain of norepinephrine transporters (NET) (Q63380 1-617): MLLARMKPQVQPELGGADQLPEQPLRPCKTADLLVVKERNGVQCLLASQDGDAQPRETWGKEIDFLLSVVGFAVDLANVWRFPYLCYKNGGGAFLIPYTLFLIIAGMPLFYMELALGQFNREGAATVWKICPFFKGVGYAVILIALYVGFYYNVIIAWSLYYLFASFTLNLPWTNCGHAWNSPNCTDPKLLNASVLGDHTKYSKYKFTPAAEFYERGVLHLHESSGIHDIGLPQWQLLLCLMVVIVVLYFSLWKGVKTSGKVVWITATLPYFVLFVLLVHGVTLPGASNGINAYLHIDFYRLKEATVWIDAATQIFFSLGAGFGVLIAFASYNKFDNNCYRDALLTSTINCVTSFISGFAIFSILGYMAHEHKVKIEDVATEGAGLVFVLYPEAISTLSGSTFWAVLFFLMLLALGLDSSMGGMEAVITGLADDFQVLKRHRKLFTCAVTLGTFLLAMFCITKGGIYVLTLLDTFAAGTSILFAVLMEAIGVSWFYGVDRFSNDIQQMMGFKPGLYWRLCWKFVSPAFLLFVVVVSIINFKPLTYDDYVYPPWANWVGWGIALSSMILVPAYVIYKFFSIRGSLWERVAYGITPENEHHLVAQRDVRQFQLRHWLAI

Chain of dopamine transporters (DAT) (P23977 whole entry): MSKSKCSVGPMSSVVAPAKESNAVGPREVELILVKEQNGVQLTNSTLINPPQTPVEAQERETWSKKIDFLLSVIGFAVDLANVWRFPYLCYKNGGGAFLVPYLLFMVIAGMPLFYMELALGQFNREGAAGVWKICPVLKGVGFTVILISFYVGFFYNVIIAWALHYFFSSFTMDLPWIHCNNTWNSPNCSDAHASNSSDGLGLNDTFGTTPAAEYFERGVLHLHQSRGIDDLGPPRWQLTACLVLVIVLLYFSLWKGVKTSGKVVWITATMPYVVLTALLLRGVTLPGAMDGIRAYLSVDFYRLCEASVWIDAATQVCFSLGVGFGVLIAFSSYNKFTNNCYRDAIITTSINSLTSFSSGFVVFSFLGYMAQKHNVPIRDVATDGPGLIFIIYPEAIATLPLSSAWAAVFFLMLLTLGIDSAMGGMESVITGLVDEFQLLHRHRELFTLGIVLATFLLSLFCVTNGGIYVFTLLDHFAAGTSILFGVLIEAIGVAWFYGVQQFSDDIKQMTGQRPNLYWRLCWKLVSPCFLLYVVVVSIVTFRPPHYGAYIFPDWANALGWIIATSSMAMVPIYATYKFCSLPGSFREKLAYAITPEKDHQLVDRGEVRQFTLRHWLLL
Chain of 5-HT transporters (SERT) (P31652 whole entry): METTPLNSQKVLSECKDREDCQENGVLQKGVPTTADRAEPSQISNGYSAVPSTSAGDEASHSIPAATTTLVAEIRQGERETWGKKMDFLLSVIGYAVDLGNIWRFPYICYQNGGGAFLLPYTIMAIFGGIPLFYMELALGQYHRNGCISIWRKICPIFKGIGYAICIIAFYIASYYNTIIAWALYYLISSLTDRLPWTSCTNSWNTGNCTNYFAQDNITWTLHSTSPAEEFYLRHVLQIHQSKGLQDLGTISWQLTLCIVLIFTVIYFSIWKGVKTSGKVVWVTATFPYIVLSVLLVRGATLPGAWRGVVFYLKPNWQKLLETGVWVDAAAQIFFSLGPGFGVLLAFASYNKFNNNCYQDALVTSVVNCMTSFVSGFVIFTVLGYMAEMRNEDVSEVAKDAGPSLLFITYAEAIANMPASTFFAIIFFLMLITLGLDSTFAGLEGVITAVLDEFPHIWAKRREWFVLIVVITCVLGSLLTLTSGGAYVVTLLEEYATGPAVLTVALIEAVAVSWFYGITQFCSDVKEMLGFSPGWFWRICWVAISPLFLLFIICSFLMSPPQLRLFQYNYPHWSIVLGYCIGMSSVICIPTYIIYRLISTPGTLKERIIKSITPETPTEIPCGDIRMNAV

Compound | DAT/SERT ratio [1] | Efficacy to evoke release at DAT (of maximal release) [1] | Efficacy to evoke release at SERT (of maximal release) (5-HT transporters (SERT)) | Efficacy to evoke release at NET (of maximal release) [2] | EC50 [1] [nM] | EC50 (5-HT transporters (SERT)) [nM]
Cc1ccc([C@H]2OC(N)=N[C@H]2C)cc1 (racemic) [(±)-cis-4,4'-DMAR, (±)-cis-4-Methyl-5-(4-methylphenyl)-4,5-dihydrooxazol-2-amine] | 2 | fully efficacious | fully efficacious | fully efficacious | – | –
C[C@@H]1N=C(N)O[C@@H]1c1ccccc1 (racemic) [(±)-cis-4-MAR, (±)-cis-4-methylaminorex] | 31 | fully efficacious | fully efficacious | fully efficacious | – | –
NC1=NCC(c2ccccc2)O1 (stereo not drawn) [Aminorex, 5-phenyl-4,5-dihydrooxazol-2-amine] | 45 | fully efficacious | fully efficacious | fully efficacious | 9.1 ± 0.9 | 414 ± 78
C[C@H](N)Cc1ccccc1 [d-Amphetamine] | – | – | – | fully efficacious | – | –
